Measured values from patent US20200237852A1, “Small Molecule Enhancers of Paneth Cell Function and Differentiation” (Massachusetts Institute of Technology, priority 2019, published 2020).

What was measured:
[1] = test system: 6-day ENR+CD cells; assay: Long-term (48-hour) modulators of basal and CCh-induced LYZ secretion; format: cell-based, murine; details: 48-hour treatment
Description: (§1) We next sought to profile potential long-term modulators of differentiated PC survival and antimicrobial secretion, as well as gauge the interaction between long-term modulators and short-term induced secretion (via CCh). To accomplish this, we employed a similar set up as in the short-term experiment, with the exception that upon plating day 4 ENR+CD cells we additionally supplemented in either MDP, LPS, TNF-α, or IFN-γ for the additional 2 days in culture and assayed all conditions for both basal and CCh-induced LYZ secretion over 3 hours on day 6 of differentiation (FIG. 3A). […] Additionally, we see that the long-term addition reduces CCh-induced secretory function relative to the untreated control for all agents (FIG. 3D).
(§2) Small intestinal crypts were isolated from C57BL/6 mice of both sexes, aged between three to six months in all experiments. Crypts were then cultured in a Matrigel culture system. Briefly, crypts were resuspended in basal culture medium (Advanced DMEM/F12 with 2 mM GlutaMAX and 10 mM HEPES; Thermo Fisher Scientific) at a 1:1 ratio with Corning™ Matrigel™ Membrane Matrix—GFR (Fisher Scientific) and plated at the center of each well of 24-well plates. Following Matrigel polymerization, 500 μL of small intestinal crypt culture medium (basal media plus 100× N2 supplement, 50×B27 supplement; Life Technologies, 500× N-acetyl-L-cysteine; Sigma-Aldrich) supplemented with growth factors EGF—E (50 ng/mL, Life Technologies), Noggin—N (100 ng/mL, PeproTech) and R-spondin 1—R (500 ng/mL, PeproTech) and small molecules CHIR99021—C (3 μM, LC Laboratories) and valproic acid—V (1 mM, Sigma-Aldrich) was added to each well. ROCK inhibitor Y-27632—Y (10 μM, R&D Systems) was added for the first 2 days of culture. Cells were cultured at 37° C. with 5% CO2, and cell culture medium was changed every other day. After 6 days of culture, crypt organoids were isolated from Matrigel by mechanical dissociation. To expand enriched ISCs (ENR+CV/Y) or Paneth Cells (ENR+CD), organoids were cultured in 24-well plates, suspended in 40 uL 3-D gels (50-50 GFR MATRIGEL®, Basal culture media), with 500 uL of crypt media supplemented with necessary growth factors and small molecules. ROCK inhibitor (Y) was added for the first two days of ISC culture following reconstitution from cryopreservation or trypLE passaging to single cells. Cell culture medium was changed every other day. After 4 days of culture in ENR+CV, cell clusters were differentiated to PCs under the ENR+CD condition for 96-well short and long-term screens. For 384-well differentiation screens, 4-day ENR+CV clusters were passaged to single cells using trypLE, replated and expanded another 3 days in 3-D ENR+CVY and then passaged directly into screens.
For 96-well plate high-throughput screening, 4-day differentiated (ENR+CD) cell clusters in 3D Matrigel were transferred to a “2.5-D” 96-well plate culture system. Briefly, cell culture gel and medium were homogenized via mechanical disruption and centrifuged at 300 g for 3 min at 4° C. […] On the last repeat, pellet was resuspended in basal culture medium, the number of cell clusters counted, and centrifuged at 300 g for 3 min at 4° C. […] At end time points (following 2 days in culture and 3 hours of stimulation), lysozyme secretion and cell viability were assessed using Lysozyme Assay Kit and CellTiter-Glo 3D Cell Viability Assay (Promega), respectively, according to the manufacturers' protocols. […]

[2] = test system: 6-day ENR+CD cells; assay: Cell pellet ATP after long-term (48-hour) treatment; format: cell-based, murine; details: low doses
Description: as §1
as §2, with “ROCK inhibitor (Y) was added for the first two days of ISC culture following reconstitution from cryopreservation or trypLE passaging to single cells. Cell culture medium was changed every other day. After 4 days of culture in ENR+CV, cell clusters were differentiated to PCs under the ENR+CD condition for 96-well short and long-term screens. For 384-well differentiation screens, 4-day ENR+CV clusters were passaged to single cells using trypLE, replated and expanded another 3 days in 3-D ENR+CVY and then passaged directly into screens.” left out
For 96-well plate high-throughput screening, 4-day differentiated (ENR+CD) cell clusters in 3D Matrigel were transferred to a “2.5-D” 96-well plate culture system. […] On the last repeat, pellet was resuspended in basal culture medium, the number of cell clusters counted, and centrifuged at 300 g for 3 min at 4° C. […] At end time points (following 2 days in culture and 3 hours of stimulation), lysozyme secretion and cell viability were assessed using Lysozyme Assay Kit and CellTiter-Glo 3D Cell Viability Assay (Promega), respectively, according to the manufacturers' protocols. […]

[3] = test system: 6-day ENR+CD cells; assay: Short-term (3-hour) stimulation of LYZ secretion, 2.5-D 96-well platform; format: cell-based, murine
Description: We first sought to profile the potential short-term actors, IFN-γ, LPS, and CCh, and see if with the added resolution of this first-of-its-kind PC platform, we might be able to determine high-resolution EC50's. To generate sufficient cells for plating out all necessary conditions we first expanded and enriched ISCs in traditional 3-D culture and subsequently differentiated for 4 days towards PCs (ENR+CD). Next, we passaged and plated these cells into 96-well plates as 2.5-D and continued differentiating for an additional 2 days in ENR+CD. On day 6 of differentiation, each well was then washed with basal media repeatedly and stimulated with its respective agent, with a measurement of supernatant LYZ paired to cell pellet ATP (FIG. 2A). This screen was repeated on three separate occasions with cells from three distinct murine donors and analyzed combined. We first wanted to determine the approximate standardized effect size of each treatment at each dose, which was accomplished through the replicate-based strictly standardized mean difference (SSMD), an effect size measure based on the statistics of contrast variables, and particularly useful in screening applications as it is a measure which takes into account both mean difference and variance in a single measure. […] In total, we see that our 2.5-D platform does provide a reasonable system for assessing and screening for potential short-term modulators of PC antimicrobial secretion.
Small intestinal crypts were isolated from C57BL/6 mice of both sexes, aged between three to six months in all experiments. Crypts were then cultured in a Matrigel culture system. Briefly, crypts were resuspended in basal culture medium (Advanced DMEM/F12 with 2 mM GlutaMAX and 10 mM HEPES; Thermo Fisher Scientific) at a 1:1 ratio with Corning™ Matrigel™ Membrane Matrix—GFR (Fisher Scientific) and plated at the center of each well of 24-well plates. […]

[4] = test system: 6-day ENR+CD cells; assay: Cell pellet ATP after short-term (3-hour) stimulation, 2.5-D 96-well platform; format: cell-based, murine; details: CCh: adj. p<0.01 for 10 and 100 μM doses
Description: We first sought to profile the potential short-term actors, IFN-γ, LPS, and CCh, and see if with the added resolution of this first-of-its-kind PC platform, we might be able to determine high-resolution EC50's. To generate sufficient cells for plating out all necessary conditions we first expanded and enriched ISCs in traditional 3-D culture and subsequently differentiated for 4 days towards PCs (ENR+CD). Next, we passaged and plated these cells into 96-well plates as 2.5-D and continued differentiating for an additional 2 days in ENR+CD. On day 6 of differentiation, each well was then washed with basal media repeatedly and stimulated with its respective agent, with a measurement of supernatant LYZ paired to cell pellet ATP (FIG. 2A). This screen was repeated on three separate occasions with cells from three distinct murine donors and analyzed combined. We first wanted to determine the approximate standardized effect size of each treatment at each dose, which was accomplished through the replicate-based strictly standardized mean difference (SSMD), an effect size measure based on the statistics of contrast variables, and particularly useful in screening applications as it is a measure which takes into account both mean difference and variance in a single measure. […]

[5] = test system: organoids differentiated under ENR+CV, ENR+CD, or ENR; assay: Western blotting for LYZ in organoids; format: cell-based, C57BL/6 mice; details: six days in ENR+CV
Description: ISC-enriched organoids cultured in 3D Matrigel with ENRCV media were passaged to 24-well plate in 3D Matrigel with ENRCV. At day zero, media were replaced to ENR or ENRCD with or without indicated compounds, and media were replaced every other day. At day six, cells were harvested from Matrigel by mechanical disruption and suspended in basal media. Cell pellets were lysed with Pierce® IP lysis buffer (ThermoFisher, 87787) containing Halt™ Protease Inhibitor Cocktail, EDTA-Free (ThermoFisher, 87785) after 3-minute centrifuge at 300×g at 4° C. Cell extracts were resolved by NuPAGE® SDS-PAGE Gel system (ThermoFisher) and electroblotted onto polyvinylidene difluoride membranes using Criterion™ Blotter (Biorad). The membranes were blocked with 2% Blotting-Grade Blocker (Biorad, 1706404) in TBS-T (50 mM Tris-HCl, 150 mM NaCl, and 0.1% Tween 20, pH 8.0) and then probed with appropriate antibodies. Detection was performed using ECL Select™ Western Blotting Detection Reagent (Amersham, 45-000-999) and ImageQuant LAS4000 (GE Healthcare).

[6] = test system: ENR+CD organoids; assay: Flow cytometry analysis, 3D culture, XPO1 inhibitors; format: cell-based, C57BL/6 mice; details: 6-day ENR+CD organoids
Experimental: ISC-enriched organoids cultured in 3D Matrigel with ENRCV media were passaged to 24-well plate in 3D Matrigel with ENRCV. At day zero, media were replaced to ENRCD with or without indicated compounds, and media were replaced every other day. At day six, cells were washed with basal media, and then harvested from Matrigel by mechanical disruption in TrypLE Express (ThermoFisher, 12605010) to remove Matrigel and dissociate organoids to single cells. After vigorous pipetting and incubation at 37° C. for 20 min, dissociated organoids were strained through a 35 μm cell strainer into a tube (Falcon, 352235). The cell filtrate was centrifuged again at 300×g for 3 min at 4° C. to pellet the cells. Cell pellets were resuspended in FACS buffer (2% FBS in PBS), and then transferred to an ultra low-bind 96-well plate (Corning, 7007). Cells were stained with Zombie-violet viability dye (BioLegend, 423107) at 100× for viability staining and/or antibody staining solution. FITC-conjugated antibody for lysozyme (Dako, […]) and APC-conjugated antibody for CD24 (BioLegend, 138505) were used at 100× dilution. Flow cytometry was performed using an LSR Fortessa (BD; Koch Institute Flow Cytometry Core at MIT). The data were analyzed using FlowJo v10 software.

**Q.** Which results are given for CC(=O)N[C@H]1C(O)O[C@H](CO)[C@@H](O)[C@@H]1O[C@H](C)C(=O)N[C@@H](C)C(=O)N[C@H](CCC(=O)O)C(N)=O (mixture of isomers) [MDP, muramyl dipeptide]?
**A.** effect size of reduction of CCh-induced secretory function relative to untreated control ([1]; CCh-induced secretion over 3 hours on day 6): fairly moderate; change in basal LYZ secretion (SSMD effect) ([1]; basal secretion over 3 hours on day 6): fairly moderate decrease in basal secretion; SSMD effect size of increase in cell number (ATP) [2]: fairly moderate; change in cell number (ATP rel. to ENR+CD) [2]: apparent increases in cell number

**Q.** For C[N+](C)(C)CCOC(N)=O.[Cl-] [CCh, carbamyl choline], which EC50 ([3]; 3-hour stimulation of 6-day ENR+CD cells, 9-well replicates from 3 bio. donors, read-out: EC50 for LYZ secretion (least-squares dose-response fit)) is on record?
**A.** 5 µM

**Q.** What about the “SSMD effect size as short-term modulator of LYZ secretion” value ([3]; 3-hour stimulation, across all tested doses) of the same compound?
**A.** strong effect

**Q.** And the “effect on cellular ATP” value [4]?
**A.** significant effect on cellular ATP

**Q.** Which “LYZ abundance on a per-mass protein normalized basis (western blot)” value [5] does the source give for CCC(=C/[C@H](C)C/C=C/C(C)=C/[C@@H](C)C(=O)[C@@H](C)[C@H](O)[C@@H](C)C/C(C)=C/C(=O)O)/C=C/[C@@H]1OC(=O)C=C[C@@H]1C [Leptomycin B] here?
**A.** appreciably increase LYZ abundance

**Q.** And the “Paneth cell representation by flow cytometry” value [6]?
**A.** statistically significant increases in Paneth cell representation
